# In US11576901B2, “Methods for treating viral infection” (HOWARD UNIVERSITY, priority 2016, dated 2023):
# Assays:
# Format in all cases: cell-based
# CEM T cells = assay: Percent of viable CEM T cells after infection; conditions: CEM T cells after infection with HIV1 modified pNL4-3.Luc.R-E-virus; FIG. 3
# Source text: It is possible that the diminished expression of a protein within the genome of a virus containing an IRES sequence may have been brought about by the compound inhibiting the ability infected cells to survive. If the compound or salt diminishes viability or is otherwise toxic to the cell, then diminished expression of a protein within the genome of a virus containing an IRES sequence may be the result of infected cells dying before sufficient levels of the protein can be expressed. Determining if diminished expression of a protein is the result of cell death or other toxic effects of the compound or salt may be accomplished by assessing the viability of cells after administration of the compound or salt. Accordingly, in some embodiments of assessing the ability of a compound in accordance with General Formula 1, including derivatives in accordance with any of General Formulae 1-1 to 1-20, or pharmaceutically acceptable salts thereof, to inhibit the expression of at least a portion of a virus genome containing an IRES sequence, the compound or salt may be assessed for its ability to preserve viability of cells following administration. […]
# RACK-1 = target: T1, RACK-1 (Homo sapiens, UniProt P63244); assay: Western assay of RACK-1 expression in HSV-1 infected Hep-2 cells; conditions: 100 μM, 24 hours pretreatment, twenty hours after infection, FIG. 6
# T1 construct: endogenous in cells; host or cells: Hep-2 cells infected with HSV-1
# Procedure: FIG. 6 is a Western assay showing expression of RACK-1, the IE protein ICP0, DE protein ICP8 and the L protein gD following infection of Hep-2 cells at varying multiplicity of infection (MOI) of HSV-1. In FIG. 6, ICP0 designates immediate early viral protein, ICP8 designates early viral protein, and dD designates late viral protein. Tubulin was used as a sample loading control. Prior to infection, Hep-2 cells were treated with DSMO as a control, 100 μM SD-29 or 100 μM SD29-12. After 24 hours of pretreatment, the Hep-2 cells were infected with HSV-1 at either 0.01, 0.05, 0.25 or 1.25 MOI (from 0.01 to 1.25). Twenty hours after infection, whole cell lysate samples were obtained and the Western assay shown in FIG. 6 was performed to examine protein levels.
# HSV-1 = assay: Western assay of IE, DE and L HSV-1 proteins (ICP0, ICP8, gD) in infected Hep-2 cells; conditions: 100 μM, 24 hours pretreatment, HSV-1 0.01 to 1.25 MOI, twenty hours after infection, FIG. 6
# Source text: Compounds in accordance with General Formula 1, including derivatives in accordance with any of General Formulae 1-1 to 1-20, can be evaluated for the capacity to inhibit triggered expression of at least a portion of a virus genome containing an IRES sequence by administering the compound, or a pharmaceutically acceptable salt of the compound, to a cell culture and exposing the cell culture to a HSV-1 infection. After a sufficient amount of time, the culture can be examined to determine the expression of IE, DE and L genes. If the amount of at least one protein corresponding to an IE gene and at least one protein corresponding to a DE and/or L gene within the viral genome is diminished compared to that within an identical infected cell culture not treated with the compound or its salt, then the compound would be capable of inhibiting triggered expression of at least a portion of the viral genome. […]
# Compounds in accordance with General Formula 1, including derivatives in accordance with any of General Formulae 1-1 to 1-20, or pharmaceutically acceptable salts thereof, can be assessed for the ability to inhibit triggered expression of at least a portion of the HSV-1 genome by infecting Hep-2 cells with the HSV-1 virus. […]
# [1] = system: HIV1 modified pNL4-3.Luc.R-E-virus; assay: Western assay of HIV p24 gag expression in infected CEM T cells; conditions: Western assay with HIV p24 antibody, FIG. 4
# Source text: The ability of a compound in accordance with General Formula 1, including derivatives in accordance with General Formulae 1-1 to 1-20, or pharmaceutically acceptable salts thereof, to inhibit the expression of at least a portion of a virus genome containing an IRES sequence can be also be determined by assessing the expression of a native protein within a viral genome. In some embodiments, the ability of a compound or pharmaceutically acceptable salt to inhibit expression of native protein can be assessed by using antibodies for a protein normally expressed from the virus genome. For example, HIV p24 gag is a protein normally expressed by HIV1 that can be detected using the HIVI p24 antibody. Accordingly, compounds in accordance with General Formula 1, including derivatives in accordance with any of General Formulae 1-1 to 1-20, or pharmaceutically acceptable salts thereof, can be assessed for the ability to inhibit proliferation of the HIV1 by infecting CEM T cells with the HIV1 modified pNL4-3.Luc.R-E-virus and assessing the expression of HIV p24 gag with the HIV p24 antibody. […]
# A compound or salt may be wrongly classified as capable of inhibiting expression of at least a portion of a virus genome containing an IRES sequence due to unequal loading of proteins within an assay. […] In some embodiments, equivalent protein loading can be assessed by ponceau staining. […]
smiles,measurement,setting,value
Nn1c(S)nnc1-c1ccc(F)cc1 [SD-29],viability of the infected cells,CEM T cells,did not decrease viability
same,expression of RACK-1,RACK-1,reduced expression of RACK-1
same,"expression of IE, DE and L HSV-1 proteins (triggered expression)",HSV-1,significantly inhibited triggered expression
same,expression of HIV p24 gag,[1],does inhibit expression
